These results are taken from US20120201908A1, “METHOD OF TREATING BIPOLAR DISORDER OR DEPRESSION USING AN ANTIESTROGEN” (Lunera Equities, LLLP, priority 2009, published 2012).

Each structure is given as a SMILES string. “Also recorded” adds a separate entry of the source. Counter-ions that a name gives are not always drawn. Like-named read-outs stand apart in the source and are kept apart here. Some results are limits rather than exact numbers.

Data set [1] has as its system symptoms of bipolar disorder. Description: Pilot study Subject E: tamoxifen citrate added to bipolar medication, mood charts and psychiatrist visits. In kind it is in vivo, human. The text has this:
Subject E is a person and an insulin dependent diabetic. Subject E was diagnosed with bipolar disorder at […]. They have had surgery in the past for their knees, their neck and stitches for their head. Subject E has been institutionalized multiple times within the last nine years for their own protection. To date, no medications have seemed to help. Subject also has a history of alcoholism. Some complexity was expected in treatment due to diabetes.

Data set [2] concerns symptoms of bipolar disorder (bipolar I). Description: Pilot study Subject D: tamoxifen citrate added to bipolar medication, mood charts and psychiatrist visits. The class given is in vivo, human. The text has this:
Subject D is a person with a family history of bipolar disorder. Although Subject D had symptoms spanning Asperger's Syndrome, Bipolar I, Obsessive-Compulsive Disorder, Oppositional Defiant Disorder and anti-social traits, bipolar I was the diagnosis for several reasons, including the fact that it was present on both sides of the family and the symptoms were better suited to a bipolar diagnosis.
First visit: Day 1. Due to Subject D's extreme condition, past hospitalizations and the complicated mixture of medications, the psychiatrist spent approximately one hour with the subject. […] Subject D was also given a copy of the Gary Sach's Mood Chart for the subject and their parent to be filled out daily for the psychiatrist's weekly review.

The test system of data set [3] is symptoms of bipolar disorder (bipolar disorder I). Description: Case report Subject A: antiestrogen to treat symptoms of bipolar disorder. The following applies: for effect of earlier medication on bipolar mood swings / side effects / reason for discontinuation of earlier medication: medication history before the antiestrogen.
Method: (§1) The following list describes the drugs that were tried in combination with Eskalith: • 1. Depakote® (Divalproex Sodium Delayed Release Tablets) 50 mg daily. […] Tegretol XR® (Carbamazepine) 200 mg twice daily. […] Risperdal® (Risperidone) 3 mg per day. […] Prozac® (Olanzapine and Fluoxetine hydrochloride) 20 mg twice daily. […] Klonopin® (Clonazepam): originally from 2002 to 2009 was 8 mg to 10 mg daily for generalized anxiety. […] Lamictal® (Lamotrigine) Titration schedule over five weeks up to 250 mg twice daily.
Data set [4] deals with symptoms of acute/severe depression. Description: Case report Subject C: antiestrogen in descending daily dosing to treat acute/severe depression. In kind it is in vivo, human. The text has this: Subject C is a person in good general physical health with no previous history of mental illness or depression. Subject C was prescribed Dapsone as a child in order to treat to treat dermititis herpetiformis. Subject C received no medication in the past four years. In December 2008, Subject C became lethargic, uninterested in usually pleasurable activities, restless, and began oversleeping. After a full month, symptoms of depression became extreme and subject C was thought to be in danger of becoming suicidal.
Subject C's last dose was 2.5 mg on the fifth day.
Suicidal thoughts returned and Subject C considered dropping out of law school. Subject C started a descending dose course of Arimidex®; starting with a single dose of 1 mg on day one. Again, symptoms of depression faded noticeably within 8 hours, in a manner similar to that in response to treatment with tamoxifen. Subject C took single daily doses of Arimidex®; 0.5 mg on day two; 0.25 mg each on days three and four.

The test system of data set [5] is symptoms of bipolar disorder (bipolar disorder II). Kind of data set: Case report Subject B: antiestrogen to treat symptoms of bipolar disorder. In kind it is in vivo, human. The method, then: Subject B is a person in good general physical health with a family history of bipolar disorder. Subject B underwent Cholecystectomy. Subject B was diagnosed with Meniere's Syndrome. Subject B was diagnosed with bipolar disorder II, at which time Lamictal was prescribed by a psychiatrist. […] The psychiatrist then prescribed Effexor XR® (venlafaxine hydrochloride) 75 mg/daily. […] A general physician prescribed 1.5 mg/Klonopin® (Clonazepam) daily.
Subject B also remained mentally alert and stable. […] Currently, Subject B remains stable and emotionally level.
Subject B's spouse states that Subject B is much more level, enjoys their life to a new degree, no longer loses control or becomes violent without warning. The entire family feels that life is much easier since Subject B began taking the antiestrogen.

Data set [6] deals with protein kinase C alpha and epsilon isozymes. As to conditions: rat frontal cortex and hippocampus; Manji et al. 1999; cited from earlier work.
The test system of data set [7] is symptoms of bipolar disorder (bipolar disorder I). As to conditions: human, in vivo.
Method: as §1
The conditions of data set [8]: in vivo; cited from earlier work.

Regarding `O=C1CCc2ccc(OCCCCN3CCN(c4cccc(Cl)c4Cl)CC3)cc2N1` [Abilify, Aripiprazole], in data set [1] (Day 27, Abilify 5 mg qd not taken for 7 days), the “mood after self-discontinuing Abilify” value is “experienced some depression and mild anxiety and irritability”. Besides, the “mood after resuming Abilify” value in data set [1] (Day 34, Abilify 5 mg qd) is listed as “much better week”.
As for `CC1=C(/C=C/C(C)=C/C=C/C(C)=C\C(=O)O)C(C)(C)CCC1` [Accutane], in data set [2] (Day 95, Accutane 30 mg qd with tamoxifen citrate 30 mg qd), the “depression under Accutane” value is recorded as “still shows no signs of depression”.
With `Cc1ccc(-c2nc3ccc(C)cn3c2CC(=O)N(C)C)cc1` [Ambien], in data set [2] (Day 95, Ambien sample for trial), the sleep entry is reported as “helped their sleeping”.
As to `CC(C)(C#N)c1cc(Cn2cncn2)cc(C(C)(C)C#N)c1` [Arimidex, anastrozole], the “severity of bipolar episodes and symptoms” value in data set [3] (Arimidex 1 mg once a day, within a week of starting) is “episodes and symptoms became less severe”. For the same molecule, in data set [3] (tamoxifen citrate 20 mg base equivalents or Arimidex 1 mg, once every day or every other day), the “mood swings with the antiestrogen as only bipolar medication” value is listed as “controls mood swings without the concurrent use of other bipolar medication; also recorded: mood swings became virtually non-existent”. In addition, the “frequency of bipolar cycles” value in data set [3] (while taking Arimidex 1 mg once a day) is on record as “cycles were less frequent”. The “symptom-free period after the course” value in data set [4] is given as “After five months, Subject C remains free of symptoms of depression”. In addition, in data set [4] (single dose on day one: tamoxifen citrate 20 mg or Arimidex 1 mg), the “time to lessening of symptoms of depression after the first dose” value was no more than 8 h. Besides, in data set [4] (tamoxifen citrate 20/10/5/2.5/2.5 mg days 1-5, Arimidex 1/0.5/0.25/0.25 mg days 1-4), the “symptoms of depression after the descending dose course” value is “Symptoms of depression were substantially alleviated after day four”. In data set [5] (Arimidex 0.25-1 mg used interchangeably with tamoxifen citrate 10 mg every other day), the “response when Arimidex replaces tamoxifen citrate” value is given as “without change in response; also recorded: work equally as well”.
In the case of `CCCC(CCC)C(=O)O` [Depakote, Divalproex Sodium], the “protein kinase C alpha and epsilon isozymes” value in data set [6] is “reduction in protein kinase C alpha and epsilon isozymes”. Further, the “side effects / reason for discontinuation of earlier medication” value (shortened to “side effects / reason”) in data set [7] was “heavy side effects”.
In the case of `COc1ccc(C(CN(C)C)C2(O)CCCCC2)cc1` (centres unmarked) [Effexor XR, venlafaxine hydrochloride], the “side effects / reason” value in data set [5] (Lamictal 10-12 weeks, Effexor XR 75 mg/daily for three days) is “lack of sleep, extreme mania, high anxiety and hyperactivity”.
For the molecule `O=C([O-])[O-].[Li+].[Li+]` [Eskalith, Lithium Carbonate], in data set [3], the “effect of earlier medication on bipolar mood swings” value (shortened to “effect of earlier medication”) is given as “slowed the swings, but did not change the severity of either the depressive or manic episodes” and the “side effects / reason” value is listed as “damage to the thyroid”. Moreover, the “protein kinase C alpha and epsilon isozymes” value in data set [6] is “reduction in protein kinase C alpha and epsilon isozymes”.
As to `CN(C)CCCN1c2ccccc2CCc2ccccc21` [Imipramine hydrochloride], the “effect of earlier medication” value in data set [3] is “continued to have bipolar swings”. In addition, the “side effects / reason” value in data set [7] is reported as “extreme hand tremors”.
Take `Nc1nnc(-c2cccc(Cl)c2Cl)c(N)n1` [Lamictal, Lamotrigine]: the “effect of earlier medication” value in data set [3] is on record as “Mood swings were more frequent without Lamictal”. The “patients who develop a rash” value in data set [8] is reported as 5-10%. Also, in data set [7], the “side effects / reason” value is “worsening skin condition; aggravated linear IgA dermatosis”.
`CCCCCCCCCC(=O)O[C@H]1CC[C@H]2[C@@H]3CCC4=CC(=O)CC[C@@H]4[C@H]3CC[C@]12C` [Nandrolone deconate]: the “side effects / reason” value in data set [3] is listed as “Erythrocytosis”.
Consider `C[C@]12C=CC(=O)C=C1CC[C@@H]1[C@@H]2C(=O)C[C@@]2(C)[C@H]1CC[C@]2(O)C(=O)CO` [Prednisone], for which, in data set [7], the “side effects / reason” value was “made all physical and mental conditions worse”.
`Cc1nc2n(c(=O)c1CCN1CCC(c3noc4cc(F)ccc34)CC1)CCCC2` [Risperdal, Risperidone]: the “side effects / reason” value in data set [7] is “inability to work or function to a satisfactory level”.
As for `OCCOCCN1CCN(C2=Nc3ccccc3Sc3ccccc32)CC1` [Seroquel, quetiapine fumarate], the “side effects / reason” value in data set [7] was “extreme tiredness and inability to function”.
On to `NC(=O)N1c2ccccc2C=Cc2ccccc21` [Tegretol XR, Carbamazepine], for which the “effect of earlier medication” value in data set [3] is “Worked for a few weeks”. Further, the “side effects / reason” value in data set [7] is “hand and body tremors, as well as slurring of speech and numb feeling tongue”.
On to `CC(NC(C)(C)C)C(=O)c1cccc(Cl)c1` (centres unmarked) [Wellbutrin, bupropion hydrochloride], for which, in data set [7], the “side effects / reason” value was “dulled their mind and slowed their thinking”.
